Results: patent US8895580B2, “Quinolinone-pyrazolone M1 receptor positive allosteric modulators” (Merck Sharp & Dohme Corp., priority 2009, dated 2014)

Target: T1, acetylcholine muscarinic M1 receptor (CHOnfat/hM1 cells) (Homo sapiens, UniProt P11229)
T1 construct: expressed in transfected cells; host or cells: CHOnfat cells (CHOnfat/hM1; Geneticin-selected)
T1 sequence (P11229 1-460): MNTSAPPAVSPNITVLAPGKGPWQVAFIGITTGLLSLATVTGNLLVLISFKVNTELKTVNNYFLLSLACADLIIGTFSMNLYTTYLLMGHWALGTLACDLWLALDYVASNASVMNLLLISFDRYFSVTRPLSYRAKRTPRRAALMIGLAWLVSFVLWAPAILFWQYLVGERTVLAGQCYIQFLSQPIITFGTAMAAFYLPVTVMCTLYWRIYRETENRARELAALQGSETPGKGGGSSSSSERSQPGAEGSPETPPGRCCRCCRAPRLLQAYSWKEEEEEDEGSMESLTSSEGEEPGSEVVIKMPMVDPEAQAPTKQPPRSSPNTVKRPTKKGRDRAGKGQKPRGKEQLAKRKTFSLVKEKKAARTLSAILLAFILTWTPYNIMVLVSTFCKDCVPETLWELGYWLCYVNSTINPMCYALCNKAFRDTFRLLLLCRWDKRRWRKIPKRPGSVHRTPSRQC
Assay: muscarinic M1 FLIPR intracellular calcium assay (positive allosteric modulation)
Assay type: cell-based
Conditions: FLIPR Ca2+, 4 min preincubation, then EC20 acetylcholine (3 nM final), read-out: IP Value (inflection point)
Method: The assay studies the effect of one or several concentrations of test compounds on basal or acetylcholine-stimulated Ca^2+ levels using FLIPR.
Compounds are prepared and subjected to a preincubation period of 4 min. Thereafter, a single EC20 concentration of acetylcholine is added to each well (3 nM final). The intracellular Ca^2+ level of each sample is measured and compared to an acetylcholine control to determine any modulatory activity.
Cells: CHOnfat/hM1, hM2, hM3 or hM4 cells are plated 24 hr before the assay at a density of 18,000 cells/well (100 μL) in a 384 well plate. CHOnfat/hM1 and CHOnfat/hM3 Growth Medium: 90% DMEM (Hi Glucose); 10% HI FBS; 2 mM L-glutamine; 0.1 mM NEAA; Pen-Strep; and 1 mg/ml Geneticin, are added. For M2Gqi5CHOnfat and M4Gqi5CHOnfat cells, an additional 600 ug/ml hygromycin is added.
Equipment: 384 well plate, 1204 addition plate; 96-well Whatman 2 ml Uniplate Incubator, 37° C., 5% CO2; Skatron EMBLA-384 Plate Washer; Multimek Pipetting System; Genesis Freedom 200 System; Mosquito System; Temo Nanoliter Pipetting System; and FLIPR^384 Fluorometric Imaging Plate Reader System are used.
Buffers. Assay Buffer: Hanks Balanced Salt Solution, with 20 mM Hepes, 2.5 mM Probenecid (Sigma P-8761) first dissolved in 1 N NaOH, 1% Bovine Serum Albumin (Sigma A-9647). Dye Loading Buffer: Assay Buffer plus 1% Fetal Bovine Serum and Fluo-4AM/Pluronic Acid Mixture. 2 mM Fluo-4AM ester stock in DMSO (Molecular Probes F-14202) Concentration of 2 μM in buffer for a final concentration of 1 μM in Assay. 20% Pluronic Acid Solution stock, with concentration of 0.04% in Buffer, 0.02% in Assay.
65 μL of 2 mM Fluo-4AM are mixed with 130 μL of 20% Pluronic Acid. The resulting solution and 650 μL FBS is added to the assay buffer for a total volume of 65 mL. Positive Controls: 4-Br-A23187: 10 mM in DMSO; final concentration 10 μM. Acetylcholine: 10 mM in water, working stock at both 20 μM and 30 μM in assay buffer, final concentration of 10 μM. This is used to check the maximum stimulation of the CHOK1/hM1 cells, 20 μM (2×) acetylcholine is added in the preincubation part of the assay, and the 30 μM (3×) stock is added in the second part. (EC20)Acetylcholine: 10 mM in water, working stock of 9 nM (3×), and final concentration in assay is 3 nM. This is used after the preincubation with test compounds. Addition of the EC20 Acetylcholine to each well with a test compound will ascertain any modulator activity. 24 wells contain 3 nM Acetylcholine alone as a control.
Determining Activity of Putative Compounds:
Screening Plate Compounds are titrated in 96-well plates (columns 2-11), 100% DMSO, started at a concentration of 15 mM (150× stock concentration), and 3-fold serial dilutions using Genesis Freedom200 System. Four 96-well plates are combined into a 384-well plate using Mosquito Nanoliter Pipetting System by transferring 1 μl of serial diluted compounds to each well, and 1 mM acetylcholine (100× stock concentration) were added as a control. Using Temo, 49 μl assay buffer is added to each well of the 384-well plate right before assay.
In a 96-well Whatman 2 ml Uniplate, 9 nM Acetylcholine (3×) is pipetted into wells corresponding to the screening compounds, and into control wells. The 30 μM acetylcholine control (3×) is added into control wells, and the 3× agonist plate is transferred into a 384 well plate.
Cells are washed three times with 100 μl, of buffer, leaving 30 μl of buffer in each well. Using Multimek, 30 μL of Dye Loading Buffer is added into each well and incubated at 37° C., 5% CO2 for up to one hr.
After 60 min, the cells are washed three times with 100 μl of buffer, leaving 30 μl, of buffer in each well. The cell plate, screening plate, and agonist addition plates are placed on the platform in the FLIPR and the door closed. A signal test to check background fluorescence and basal fluorescence signal is performed. Laser intensity is adjusted if necessary. […]

Q: With O=c1c2cn(Cc3ccc(-n4cccn4)cc3)c3ccccc3c-2nn1[C@H]1CCCC[C@@H]1O (racemic) [Example 508, (±)-2-(trans-2-Hydroxycyclohexyl)-5-{[4-(1H-pyrazol-1-yl)phenyl]methyl}-2,5-dihydro-3H-pyrazolo[4,3-c]quinolin-3-one] as the compound, how does the EC50 read?
A: Its EC50 is 33 nM.

Q: For O=C1CCCCC1n1nc2c3ccccc3n(Cc3ccc(-n4cccn4)cc3)cc-2c1=O (racemic) [Example 720, (±)-2-(2-oxocyclohexyl)-5-{[4-(1H-pyrazol-1-yl)phenyl]methyl}-2,5-dihydro-3H-pyrazolo[4,3-c]quinolin-3-one], which EC50 is on record?
A: Its EC50 is 135 nM.

Q: With Cc1ccnc(N[C@H]2CCCC[C@@H]2n2cc3c(=O)n(-c4nccc(C)c4F)nc-3c3c(NCc4ccc(-n5cccn5)cc4)c(F)ccc32)c1F (racemic) [Example 733, (±)-8-Fluoro-2-(3-fluoro-4-methylpyridin-2-yl)-5-trans-2-[(3-fluoro-4-methylpyridin-2-yl)amino]cyclohexy}-9-({[4-(1H-pyrazol-1-yl)phenyl]methyl}amino)-2,5-dihydro-3H-pyrazolo[4,3-c]quinolin-3-one] as the compound, how does the EC50 read?
A: The EC50 was 653 nM.

Q: How did the EC50 turn out when COc1ccc(Cn2cc3c(=O)n(-c4ccccc4F)nc-3c3ccccc32)cc1 [Example 1, 2-(2-Fluorophenyl)-5-{[4-(methoxy)phenyl]methyl}-2,5-dihydro-3H-pyrazolo[4,3-c]quinolin-3-one] was run?
A: Its EC50 is 415 nM.

Q: O=c1c2cn(Cc3ccc(-c4ccccc4)cc3)c3ccccc3c-2nn1-c1ccccc1F [Example 8, 2-(2-Fluorophenyl)-5-(biphenyl-4-ylmethyl)-2,5-dihydro-3H-pyrazolo[4,3-c]quinolin-3-one] was tested. Which EC50 did it give?
A: The EC50 was 1990 nM.

Q: Which EC50 does the source give for Cn1cnc(-n2nc3c4c(F)ccc(F)c4n(Cc4ccc(-n5cccn5)cc4)cc-3c2=O)c1 [Example 24, 6,9-Difluoro-2-(1-methyl-1H-imidazol-4-yl)-5-{[4-(1H-pyrazol-1-yl)phenyl]methyl}-2,5-dihydro-3H-pyrazolo[4,3-c]quinolin-3-one] here?
A: Its EC50 is 103 nM.

Q: Which EC50 does the source give for O=c1c2cn(Cc3ccc(-n4cccn4)cc3)c3c(F)ccc(F)c3c-2nn1-c1ccccc1CO [Example 55, 6,9-Difluoro-2-[2-(hydroxymethyl)phenyl]-5-{[4-(1H-pyrazol-1-yl)phenyl]methyl}-2,5-dihydro-3H-pyrazolo[4,3-c]quinolin-3-one] here?
A: Its EC50 is 204 nM.

Q: CCNCc1ccccc1-n1nc2c3c(F)ccc(F)c3n(Cc3ccc(-n4cccn4)cc3)cc-2c1=O [Example 56] was tested. Which EC50 did it give?
A: The EC50 was 123 nM.

Q: How did the EC50 turn out when O=c1c2cn(Cc3ccc(-n4cccn4)cc3)c3c(F)ccc(F)c3c-2nn1-c1ncccc1C(F)(F)F [Example 77, 6,9-Difluoro-5-{[4-(1H-pyrazol-1-yl)phenyl]methyl}-2-[3-(trifluoromethyl)pyridin-2-yl]-2,5-dihydro-3H-pyrazolo[4,3-c]quinolin-3 one] was run?
A: The EC50 was 65 nM.

Q: How did the EC50 turn out when O=c1c2cn(Cc3ccc(-n4cncn4)cc3F)c3c(F)ccc(F)c3c-2nn1-c1ccccc1F [Example 84, 6,9-Difluoro-2-(2-fluorophenyl)-5-{[2-fluoro-4-(1H-1,2,4-triazol-1-yl)phenyl]methyl}-2,5-dihydro-3H-pyrazolo[4,3-c]quinolin-3-one] was run?
A: The EC50 was 348 nM.

Q: For O=c1c2cn(Cc3ccc(-n4cccn4)cc3)c3ccccc3c-2nn1-c1ccccc1F [Example 107, 2-Fluorophenyl-5-{[4-(1H-pyrazol-1-yl)phenyl]methyl}-2,5-dihydro-3H-pyrazolo[4,3-c]quinolin-3-one], which EC50 is on record?
A: The EC50 was 59 nM.

Q: For O=c1c2cn(Cc3ccc4[nH]ccc4c3)c3ccccc3c-2nn1-c1ccccc1F [Example 109, 2-(2-Fluorophenyl)-5-(1H-indol-5-ylmethyl)-2,5-dihydro-3H-pyrazolo[4,3-c]quinolin-3-one], which EC50 is on record?
A: Its EC50 is 90 nM.

Q: With O=c1c2cn(Cc3nccc4ccccc34)c3ccccc3c-2nn1-c1ccccc1F [Example 128] as the compound, how does the EC50 read?
A: Its EC50 is 1290 nM.

Q: With O=c1c2cn(Cc3ccc(-c4ccc5[nH]ccc5c4)cc3F)c3ccccc3c-2nn1-c1ccccc1F [Example 187, 5{[2-Fluoro-4-(1H-indol-5-yl)phenyl]methyl}-2-(2-fluorophenyl)-2,5-dihydro-3H-pyrazolo[4,3-c]quinolin-3-one] as the compound, how does the EC50 read?
A: Its EC50 is 1640 nM.

Q: Which EC50 does the source give for CC(C)Cn1cc(-c2ccc(Cn3cc4c(=O)n(-c5ccccc5F)nc-4c4ccccc43)cn2)cn1 [Example 242] here?
A: The EC50 was 159 nM.

Q: How did the EC50 turn out when Cc1ccc(-c2ccc(Cn3cc4c(=O)n(-c5ccccc5F)nc-4c4ccccc43)nc2)cn1 [Example 258] was run?
A: Its EC50 is 246 nM.

Q: How did the EC50 turn out when O=c1c2cn(Cc3c(F)cccc3F)c3ccccc3c-2nn1-c1ccccc1F [Example 294] was run?
A: The EC50 was 824 nM.

Q: How did the EC50 turn out when O=c1c2cn(Cc3ccc(-c4ncco4)cc3)c3ccccc3c-2nn1-c1ccccc1F [Example 381] was run?
A: The EC50 was 900 nM.

Q: With O=c1c2cn(Cc3ccc(-n4cccn4)cc3)c3ccccc3c-2nn1C1CCOCC1 [Example 428] as the compound, how does the EC50 read?
A: Its EC50 is 359 nM.

Q: Which EC50 does the source give for O=C1CCc2cccc(-n3nc4c5ccccc5n(Cc5ccc(-n6cccn6)cc5)cc-4c3=O)c21 [Example 587] here?
A: Its EC50 is 4.8 nM.

Q: With CNC(=O)c1ccccc1-n1nc2c3ccccc3n(Cc3ccc(-n4cccn4)cc3)cc-2c1=O [Example 612, N-Methyl-2-(3-oxo-5-{[4-(1H-pyrazol-1-yl)phenyl]methyl}-3,5-dihydro-2H-pyrazolo[4,3-c]quinolin-2-yl)benzamide] as the compound, how does the EC50 read?
A: Its EC50 is 4870 nM.

Q: Which EC50 does the source give for O=c1c2cn(Cc3ccc(-n4cccn4)cc3)c3ccccc3c-2nn1-c1ccccc1CN1CCCC1 [Example 648, 5-{[4-(1H-Pyrazol-1-yl)phenyl]methyl}-2-[2-(pyrrolodin-1-ylmethyl)phenyl]-2,5-dihydro-3H-pyrazolo[4,3-c]quinolin-3-one] here?
A: Its EC50 is 179 nM.

Q: Which EC50 does the source give for N#Cc1cccc(F)c1-n1nc2c3ccccc3n(Cc3ccc(-n4cccn4)cc3)cc-2c1=O [Example 667, 3-Fluoro-2-(3-oxo-5-{[4-(1H-pyrazol-1-yl)phenyl]methyl}-3,5-dihydro-2H-pyrazolo[4,3-c]quinolin-2-yl)benzonitrile] here?
A: Its EC50 is 22 nM.

Q: With CC(=O)N1CCC(n2nc3c4ccccc4n(Cc4ccc(-n5cccn5)cc4)cc-3c2=O)CC1 [Example 675, 2-(1-Acetylpiperidin-4-yl)-5-{[4-(1H-pyrazol-1-yl)phenyl]methyl}-2,5-dihydro-3H-pyrazolo[4,3-c]quinolin-3-one5] as the compound, how does the EC50 read?
A: Its EC50 is 664 nM.

Q: CCN(CC)C(=O)Cn1nc2c3ccccc3n(Cc3ccc(-n4cccn4)cc3)cc-2c1=O [Example 690, N,N-Diethyl-2-(3-oxo-5-{[4-(1H-pyrazol-1-yl)phenyl]methyl}-3,5-dihydro-2H-pyrazol[4,3-c]quinolin-2-yl)acetamide] was tested. Which EC50 did it give?
A: Its EC50 is 1250 nM.
